{"source": "paper PMC3012033", "about": "(Lipids in Health and Disease, 2010)", "key": {"[1]": {"system": "B16F10 mice melanoma cell line", "test": "B16F10 melanoma cell viability (MTT, Trypan Blue exclusion)", "format": "cell-based", "method": "B16F10 mice melanoma cell line was generously provided by Dr. Roger Chammas (USP, São Paulo, Brazil). Cells were routinely cultured in RPMI 1640 medium supplemented with 10% fetal bovine serum (FBS) at 37°C in a humidified atmosphere containing 5% CO2.\nTo dissolve the crystals of Formazan was used dimethylsulfoxide (DMSO). Quantification was obtained by the absorbance reading at a wavelength of 450 nm to 690 nm. Cell viability was also evaluated by the method of Trypan Blue exclusion (Invitrogen, Carlsbad, CA), by direct counting in a hemocytometer."}, "[2]": {"test": "Bone marrow and spleen cellularity", "format": "in vivo, C57BL/6J mice", "method": "(§1) C57BL/6J mice, weighing about 20 g and 60 days older were used. After the experiments, blood was collected from the axillary plexus. The bone marrow was collected from the femur of the same animals. The spleen cellularities were also analyzed.\nThe animals were first anesthetized, exsanguinated and sacrificed by cervical dislocation. The bone marrow was obtained by washing the cavity with the culture femoral McCoy's 5A modified (Sigma, Chemical Company, USA) ice cream.\nSleen cells were collected by the same sacrificed animals of hematological procedures. The spleen was transferred to plastic Petri dish with iced culture McCoy's 5A modified (Sigma, Chemical Company, USA) containing 10% EDTA, used to collect the cells. In the Petri dish, the spleen capsule was broken in one of its ends, with the aid of two needles bent into \"L\", and fixed in syringes. The cells were gently removed from the dish by the dissociation method. The suspension was homogenized in the Petri dish with standard Pasteur pipette to complete cell separation and transferred to conical plastic tube and kept in an ice bath. The cells obtained from the spleen were quantified in a Neubauer chamber hemocytometer after dilution of 1:500 liquid Turk, diluent composed of 1% solution of glacial acetic acid. For morphological evaluation, the slides were performed in cell suspension cellspin cytocentrifuge (Incibras) and subsequently submitted to the staining of May-Grunwald GIENS, modified by Rosenfeld, and peroxidase method modified by Graham Knoll, for identification and quantification of different types cell."}, "B16F10 melanoma cells": {"system": "B16F10 melanoma cells", "test": "Cell cycle analysis by flow cytometry (propidium iodide)", "format": "cell-based, mice", "conditions": "0.8 μM", "method": "Cell cycle analysis was determined by flow cytometry at the Federal State University of Paraná. Briefly, after the different treatments, 2 × 10^6 cells were trypsinized, washed three times with PBS, fixed in 70% ethanol, and stained with Propidium Iodide (PI) solution. All analyses were done using a FACScalibur flow cytometer (Becton Dickinson, San Jose, CA). The red fluorescence of PI was collected through a 585/42-nm band -pass filter, and the fluorescence signals were measured in a linear scale of 1024 channels. For each sample, at least 10000 events were acquired and the data were analyzed using an appropriate software (CELLQuest, Becton Dickinson, San Jose, CA)."}, "Blood cells evaluation": {"test": "Blood cells evaluation", "format": "in vivo, C57BL/6J mice", "conditions": "mean ± S.E.M., seven animals", "method": "as §1\nBlood samples were collected twenty days after tumor implant from the axillary plexus of the animals in all experimental groups, which were used to perform blood and reticulocyte count, according to the techniques used in the Laboratory of Experimental Hematology of FCF/USP [14]."}, "B16F10 melanoma": {"system": "B16F10 melanoma", "test": "Tumor growth and survival of B16F10 melanoma bearing mice", "format": "in vivo, C57Bl/6J mice", "method": "In vivo experiments were conducted in male C57BL/6J mice (18-25 g), housed at 22 ± 2°C under a 12/12 h light/dark cycle with free access to food and water until use. The animals were acclimatized to the laboratory for at least 24 h before testing and were used only once. All animal handling and experimental procedures were conducted with prior approval of the ethics committee on animal use of the University of São Paulo Medical School Hospital Ethics Committee.\nTo mice experimentations, the simvastatin compressed powders were macerated and watery solutions were made.\nAll animal's procedures were made in Butantan Institute with supervision of Dr. Durvanei Augusto Maria, in accordance with University of Sao Paulo Medical School Hospital Ethics Committee. Briefly, 5 × 10^4 B16F10 melanoma cells were injected subcutaneously into C57Bl/6J mice. […] Tumors were measured using a caliper and volume was estimated using the formula V = (small diameter)^2 × (large diameter)/¾ πR [13].\nTumor growth data were analyzed by Student's t test, survival rate data were analyzed by Kaplan-Meyer curves and hematological data were analyzed by one-way ANOVA with Tukey posttest using Graph Pad Prism Stat version 4.0 for Windows."}, "[3]": {"conditions": "mice bearing melanoma treated with same doses"}, "[4]": {"conditions": "mice without tumor (Control-Simvastatin), vs control"}, "[5]": {"conditions": "melanoma bearing mice (Tumor-Simvastatin), twenty days after implant"}, "[6]": {"conditions": "mice without tumor (Control-Simvastatin)"}}}
{"molecule": "CCC(C)(C)C(=O)O[C@H]1C[C@@H](C)C=C2C=C[C@H](C)[C@H](CC[C@@H]3C[C@@H](O)CC(=O)O3)[C@H]21", "note": "[simvastatin, Simvastatin]", "values": [{"measurement": "toxic effect on B16F10 cells", "setting": "[1]; 0.8 μM", "value": "toxic effect"}, {"measurement": "toxic effect on B16F10 cells", "setting": "[1]; 1.6 μM", "value": "toxic effect"}, {"measurement": "toxicity (cell death) in the first 24 h of incubation", "setting": "[1]; 1.6 μM, first 24 h", "value": "massive death"}, {"measurement": "number of viable cells, trypan blue assay", "setting": "[1]; cultured melanoma, after 48 hours, vs vehicle-treated", "value": "reduces the number of viable cells"}, {"measurement": "Femoral Bone Marrow cellularity", "setting": "[2]; [3]", "value": "equal"}, {"measurement": "Spleen cellularity", "setting": "[2]; [3]", "value": "equal"}, {"measurement": "Femoral Bone Marrow cellularity", "setting": "[2]; [4]", "value": "decreased"}, {"measurement": "Spleen cellularity", "setting": "[2]; [4]", "value": "decreased"}, {"measurement": "cell cycle effect", "setting": "B16F10 melanoma cells; 24 hours", "value": "early cell cycle arrest in G0/G1"}, {"measurement": "hypodiploid cells", "setting": "B16F10 melanoma cells; after G0/G1 arrest", "value": "increase of hypodiploid cells"}, {"measurement": "Eosinophils", "setting": "Blood cells evaluation; [5]", "value": "8.5 ± 3.0", "unit": "%"}, {"measurement": "Hemoglobin", "setting": "Blood cells evaluation; [5]", "value": "12.4 ± 1.2", "unit": "g/dL"}, {"measurement": "Total Leukocytes", "setting": "Blood cells evaluation; [5]", "value": "3.9 ± 0.8 * 103/mm3"}, {"measurement": "Eosinophils", "setting": "Blood cells evaluation; [6]", "value": "4.7 ± 1.4", "unit": "%"}, {"measurement": "Hemoglobin", "setting": "Blood cells evaluation; [6]", "value": "12.8 ± 1.9", "unit": "g/dL"}, {"measurement": "Total Leukocytes", "setting": "Blood cells evaluation; [6]", "value": "3.3 ± 0.1 * 103/mm3"}, {"measurement": "final tumor sizing compared to the controls", "setting": "B16F10 melanoma; 5 mg/Kg/day orally for 10 days, started 10 days after inoculation", "value": 25, "unit": "%"}, {"measurement": "treated mice with a survival of 28 days (Kaplan-Meyer)", "setting": "B16F10 melanoma; 5 mg/Kg/day orally, no survival mice of control group on day 24", "value": "Twenty-five percent"}, {"measurement": "total tumoral regression", "setting": "B16F10 melanoma; melanoma bearing mice, tumor re-started to grow when treatment aborted", "value": "not developed"}, {"measurement": "tumor inhibition (B16F10 tumor growth)", "setting": "B16F10 melanoma; over 10 days period", "value": "approximately 75%"}]}
